Results on six compounds are retold here after article PMC5814047, “Peptidic inhibitors of insulin-degrading enzyme with potential for dermatological applications discovered via phage display” (PLoS ONE, 2018).

Values after ≈ are worked out from the molar mass of the structure shown. Values joined by “and” are separate entries in the source; they are usually repeats but may differ in a detail not shown here. Identical values can stand only once. Like-named read-outs stand apart in the source and are kept apart here. Bridge positions count the residues as written; N and C are the ends. Ends that are not written are not given here. Peptide text beside a SMILES is read from it.

One data set addresses T1, IDE (Homo sapiens, UniProt P14735).
T1 construct: made in house; host or cells: bacteria
T1 sequence (P14735 1-1019): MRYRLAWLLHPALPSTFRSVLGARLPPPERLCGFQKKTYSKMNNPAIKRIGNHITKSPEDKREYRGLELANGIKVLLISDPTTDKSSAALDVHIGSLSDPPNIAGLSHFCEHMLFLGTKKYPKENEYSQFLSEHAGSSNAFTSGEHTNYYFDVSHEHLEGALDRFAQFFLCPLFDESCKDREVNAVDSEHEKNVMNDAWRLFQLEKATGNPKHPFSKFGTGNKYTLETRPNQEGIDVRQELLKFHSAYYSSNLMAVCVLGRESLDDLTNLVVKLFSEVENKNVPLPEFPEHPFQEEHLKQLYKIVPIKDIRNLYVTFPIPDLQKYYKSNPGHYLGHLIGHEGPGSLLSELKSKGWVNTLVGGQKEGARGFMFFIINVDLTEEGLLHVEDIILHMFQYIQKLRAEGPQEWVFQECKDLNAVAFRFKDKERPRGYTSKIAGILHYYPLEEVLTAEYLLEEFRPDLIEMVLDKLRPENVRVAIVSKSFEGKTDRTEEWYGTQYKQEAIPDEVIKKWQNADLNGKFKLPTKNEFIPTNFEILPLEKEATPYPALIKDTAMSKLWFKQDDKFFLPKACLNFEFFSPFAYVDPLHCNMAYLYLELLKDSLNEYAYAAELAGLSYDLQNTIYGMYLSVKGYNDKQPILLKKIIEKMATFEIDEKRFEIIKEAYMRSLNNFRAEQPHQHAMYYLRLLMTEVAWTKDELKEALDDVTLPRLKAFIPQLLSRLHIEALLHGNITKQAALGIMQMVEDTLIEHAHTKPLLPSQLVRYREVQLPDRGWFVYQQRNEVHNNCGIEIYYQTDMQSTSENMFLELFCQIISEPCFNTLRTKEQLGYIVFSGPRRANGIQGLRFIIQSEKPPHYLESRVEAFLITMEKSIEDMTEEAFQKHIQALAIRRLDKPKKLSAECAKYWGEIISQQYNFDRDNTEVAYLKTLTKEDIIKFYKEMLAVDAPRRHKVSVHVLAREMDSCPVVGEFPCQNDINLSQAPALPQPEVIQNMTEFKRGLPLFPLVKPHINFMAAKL
In words: biochemical. The conditions noted are these: for IC50 <10 uM?: initial test at 10 uM using insulin (100 nM); for remaining activity at 0.016 µM: Cmpd 0.016 uM; for remaining activity at 0.08 µM: Cmpd 0.08 uM; for remaining activity at 0.4 µM: Cmpd 0.4 uM; for remaining activity at 2 µM: Cmpd 2 uM; for remaining activity at 10 µM: Cmpd 10 uM. A digest of the protocol:
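Bacterially expressed recombinant human IDE (1 nM) in PBS with 0.05% BSA. Substrates: FRET1 (5 μM; fluorescence, ex 340/em 420 nm), fluoresceinated biotinylated amyloid β-protein (500 nM; fluorescence polarization, ex 488/em 525 nm), or recombinant human insulin (50 nM; ELISA).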

Data set [1] is described as follows: Solubility in assay medium and cell culture medium. The data set is classed as physicochemical. The conditions noted are these: cosmetic-grade P12-3A, read-out: soluble up to.
Where [2] appears, read: insulin ELISA, Runs 1-3, read-out: Percent Activity (normalized source data).
Setting [3] is: substrate recombinant human insulin 50 nM, Ki from IC50 with the Cheng-Prusoff equation.
Where [4] appears, read: insulin ELISA assay, dose-response, Replicates 1-3, read-out: IC50s, individual replicates.
Where [5] appears, read: insulin ELISA assay, dose-response, N=3, read-out: IC50s, Mean.

As a reminder, the Hill slope is the slope factor of the fitted curve. A word on the Ki: it is the equilibrium dissociation constant of an inhibitor or competing ligand from its target.

In turn, `CC(C)C[C@H](NC(=O)[C@H](CO)NC(=O)[C@@H](N)CCC(N)=O)C(=O)N1CCC[C@H]1C(=O)N[C@@H](Cc1c[nH]c2ccccc12)C(=O)N[C@H]1CSSC[C@@H](C(=O)N[C@H](C(=O)N[C@H](C(N)=O)[C@@H](C)O)C(C)C)NC(=O)[C@H](Cc2c[nH]cn2)NC(=O)[C@@H]2CCCN2C(=O)[C@H](Cc2ccc(O)cc2)NC1=O` [P12-3A] (H-QSLPWCYPHCVT-NH2; disulfide 6-10 (inferred)) yielded a Hill slope at IDE (dose-response of P12-3A against insulin degradation by IDE, Fig 3B) of 0.91 ± 0.15. Also, the “IC50 <10 uM?” value against IDE is “YES”. Also, at IDE (setting [2]), the remaining activity at 0.016 µM was determined as 90.2%, the remaining activity at 0.08 µM was 84.4%, the remaining activity at 0.4 µM worked out at 76.5% and the remaining activity at 2 µM turned out to be 62.5%. For the same compound, at IDE (setting [2]), the remaining activity at 10 µM was 47.7%. For the same compound, the remaining activity at 50 µM on IDE (insulin ELISA, Cmpd 50 uM, Runs 1-3, read-out: Percent Activity (normalized source data)) worked out at 28.6%. In addition, the remaining activity at 0.0316228 µM on IDE (resynthesized P12-3A 0.0316228 uM, individual replicates, read-out: Percent Activity (normalized source data)) is 98.5%. In data set [1] (assay medium (PBS/0.05%BSA)), the solubility was ~500 µM (≈ 715 µg/mL). For the same compound, the solubility in data set [1] (cell culture medium) was ~100 µM (≈ 143 µg/mL).
On to `CC(C)C[C@H](NC(=O)[C@H](CO)NC(=O)[C@@H](N)CCC(N)=O)C(=O)N1CCC[C@H]1C(=O)N[C@@H](Cc1c[nH]c2ccccc12)C(=O)N[C@H]1CSSC[C@@H](C(=O)N[C@H](C(=O)N[C@H](C(=O)O)[C@@H](C)O)C(C)C)NC(=O)[C@H](Cc2c[nH]cn2)NC(=O)[C@@H]2CCCN2C(=O)[C@H](Cc2ccc(O)cc2)NC1=O` [P12-3] (H-QSLPWCYPHCVT-OH; disulfide 6-10 (inferred)), for which, on IDE, the “IC50 <10 uM?” value is given as “YES”. For the same compound, at IDE (setting [2]), the remaining activity at 0.016 µM is 66.3%, the remaining activity at 0.08 µM came to 72.2%, the remaining activity at 0.4 µM came out at 62.9% and the remaining activity at 2 µM was 64.4%. The remaining activity at 10 µM at IDE (setting [2]) stood at 37.6%.
On to QSLPWCYP-NH2 [P12-3B], for which the IC50 on IDE (from initial test at 10 uM using insulin (100 nM), read-out: IC50 (summary of results, listed in Table 1)) was > 10 µM. On IDE (setting [3]), the inhibitory constant (Ki) is > 10 µM.
In the case of VHWDFRQWWQPS [P12-1], the inhibitory constant (Ki) is 0.8 µM on IDE (as restated in the Discussion, read-out: Ki (insulin)) and 0.8 ± 0.04 µM on IDE (setting [3]). Also, the “IC50 <10 uM?” value against IDE is reported as “YES”. Moreover, the IC50 on IDE (setting [4]) is 1.58 µM and 1.47 µM and 1.72 µM; at IDE (setting [5]), 1.59 µM.
For VHWDFRQWWQPS-NH2 [P12-1A], on IDE, the “IC50 <10 uM?” value is recorded as “YES”. The IC50 is 3.22 µM and 1.93 µM and 2.38 µM at IDE (setting [4]); 2.51 µM at IDE (setting [5]). Moreover, the inhibition constant (Ki) on IDE (setting [3]) worked out at 1.3 ± 0.2 µM.
For the compound WSPISGKFFQRF [P12-4], the “IC50 <10 uM?” value against IDE is “YES”. The IC50 was 1.9 µM and 3.16 µM and 3.78 µM at IDE (setting [4]); 2.95 µM on IDE (setting [5]). For the same compound, the Ki on IDE (setting [3]) amounted to 1.5 ± 0.3 µM.
